According to patent US20240366639A1, “HETEROCYCLIC GLP-1 AGONISTS” (GASHERBRUM BIO, INC., priority 2021, published 2024):
Like-named read-outs stand apart in the source and are kept apart here.

Molecular target: T1, GLP-1 Receptor (GLP1R) (Homo sapiens, UniProt P43220)
T1 construct: host or cells: HEK293/GLP1R/CRE-LUC
Experiment: GLP-1R agonist cAMP stimulation assay (Method 3)
Assay type: cell-based
Conditions: HEK293/GLP1R/CRE-LUC cells (HDB), Method 3, 30 min incubation
Method: Method 3: Activation of GLP-1 receptor is known to stimulate cyclic AMP (cAMP) production in cells which indicates primary coupling to the Gαs subunit of the G protein heterotrimeric complex.
To optimize functional activity directed toward Gαs coupling, a HEK293/CRE-Luc cell line developed by HDB stably expressing the GLP-1 Receptor was used, 200× concentration of compound working solutions were prepared (Agilent Technologies Bravo) with 1/2 log serial dilution in 384-well Echo LDV plate (Labcyte, Cat #LP-0200). 50 nL/well 200× concentration of compound working solutions were moved to 384-well white low volume plate (Greiner, Cat #784075) using Labcyte ECHO550. 1×10^5 cells/mL HEK293/GLP1R/CRE-LUC(HD Biosciences) cell suspensions prepared with assay buffer [DPBS containing 0.5 mM IBMX (Sigma, Cat #15879) and 0.1% BSA (GENVIEW, Cat #FA016-100 g)], 10 μL cell suspensions were added to each well of previous generated assay plate which already contains 50 nL compound at 200× concentration using ThermoFisher Multidrop Combi (1000 cells/well). Seal the plate and incubate at 37° C. with 5% CO2 for 30 min.
After incubation the cAMP assay signal was generated using cAMP dynamic 2 Kit (Cisbio). 5 μL cAMP-d2 working solution was added to each well, followed with 5 μL Anti-cAMP antibody-cryptate working solution added to each well using ThermoFisher Multidrop Combi. Incubate at room temperature for 1 hour protected from light. Read the fluorescence at 665 nm and 615 nm with Reader PerkinElmer EnVision.

[1] = read-out: GLP1R cAMP Stimulation DR: EC50 (nM) [Species: Human, Assay Cell Line: HDB]
[2] = read-out: GLP1R cAMP Stimulation DR: pEC50 (M) [Species: Human, Assay Cell Line: HDB] (converted)

T1 sequence (P43220 24-463): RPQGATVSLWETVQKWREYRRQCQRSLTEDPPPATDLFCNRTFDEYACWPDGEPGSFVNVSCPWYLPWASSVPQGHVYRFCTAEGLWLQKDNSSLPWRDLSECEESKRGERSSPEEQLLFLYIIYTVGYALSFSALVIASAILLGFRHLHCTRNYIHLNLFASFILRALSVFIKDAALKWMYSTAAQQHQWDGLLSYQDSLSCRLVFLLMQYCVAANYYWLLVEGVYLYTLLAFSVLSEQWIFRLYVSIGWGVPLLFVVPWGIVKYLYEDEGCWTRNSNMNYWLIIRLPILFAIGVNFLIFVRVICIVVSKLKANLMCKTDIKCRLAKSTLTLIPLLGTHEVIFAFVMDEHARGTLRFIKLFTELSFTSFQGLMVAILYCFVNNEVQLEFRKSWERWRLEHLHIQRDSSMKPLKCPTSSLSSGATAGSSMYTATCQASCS

Row | SMILES | EC50 [1] [nM] | EC50 [2] [nM]
1 | Cc1cc(-n2nc3c(c2-n2ccn(-c4ccc(P5(=O)CCN(C)CC5)cc4)c2=O)[C@H](C)N(C(=O)c2cc4cc(C5CCOCC5)ccc4n2[C@@]2(c4noc(=O)[nH]4)C[C@@H]2C)CC3)cc(C)c1F [Compound 126a, 3-((1S,2S)-1-(2-((S)-2-(4-fluoro-3,5-dimethylphenyl)-4-methyl-3-(3-(4-(1-methyl-4-oxido-1,4-azaphosphinan-4-yl)phenyl)-2-oxo-2,3-dihydro-1H-imidazol-1-yl)-4,5,6,7-tetrahydro-2H-pyrazolo[4,3-c]pyridine-5-carbonyl)-5-(tetrahydro-2H-pyran-4-yl)-1H-indol-1-yl)-2-methylcyclopropyl)-1,2,4-oxadiazol-5(4H)-one] | 0.1 to 0.2 | 0.1 to 1
2 | Cc1cc(-n2nc3c(c2-n2ccn(-c4ccc(P5(=O)CCCC5)cc4)c2=O)[C@H](C)N(C(=O)c2cc4cc(C5CCOCC5)ccc4n2[C@@]2(c4noc(=O)[nH]4)C[C@@H]2C)CC3)cc(C)c1F [Compound 127a, 3-((1S,2S)-1-(2-((S)-2-(4-fluoro-3,5-dimethylphenyl)-4-methyl-3-(3-(4-(1-oxidophospholan-1-yl)phenyl)-2-oxo-2,3-dihydro-1H-imidazol-1-yl)-4,5,6,7-tetrahydro-2H-pyrazolo[4,3-c]pyridine-5-carbonyl)-5-(tetrahydro-2H-pyran-4-yl)-1H-indol-1-yl)-2-methylcyclopropyl)-1,2,4-oxadiazol-5(4H)-one] | < 0.1 | ≤ 0.1
3 | Cc1cc(-n2nc3c(c2-n2ccn(-c4ccc(P(=O)(C(C)C)C(C)C)cc4)c2=O)[C@H](C)N(C(=O)c2cc4cc(C5CCOCC5)ccc4n2[C@@]2(c4noc(=O)[nH]4)C[C@@H]2C)CC3)cc(C)c1F [Compound 128a, 3-((1S,2S)-1-(2-((S)-3-(3-(4-(diisopropylphosphoryl)phenyl)-2-oxo-2,3-dihydro-1H-imidazol-1-yl)-2-(4-fluoro-3,5-dimethylphenyl)-4-methyl-4,5,6,7-tetrahydro-2H-pyrazolo[4,3-c]pyridine-5-carbonyl)-5-(tetrahydro-2H-pyran-4-yl)-1H-indol-1-yl)-2-methylcyclopropyl)-1,2,4-oxadiazol-5(4H)-one] | < 0.1 | ≤ 0.1
4 | CCP(=O)(CC)c1ccc(-n2ccn(-c3c4c(nn3-c3cc(C)c(F)c(C)c3)CCN(C(=O)c3cc5cc(C6CCOCC6)ccc5n3[C@@]3(c5noc(=O)[nH]5)C[C@@H]3C)[C@H]4C)c2=O)cc1 [Compound 129a, 3-((1S,2S)-1-(2-((S)-3-(3-(4-(diethylphosphoryl)phenyl)-2-oxo-2,3-dihydro-1H-imidazol-1-yl)-2-(4-fluoro-3,5-dimethylphenyl)-4-methyl-4,5,6,7-tetrahydro-2H-pyrazolo[4,3-c]pyridine-5-carbonyl)-5-(tetrahydro-2H-pyran-4-yl)-1H-indol-1-yl)-2-methylcyclopropyl)-1,2,4-oxadiazol-5(4H)-one] | < 0.1 | ≤ 0.1
5 | CNc1cc(-n2ccn(-c3c4c(nn3-c3cc(C)c(F)c(C)c3)CCN(C(=O)c3cc5cc(C6CCOCC6)ccc5n3[C@@]3(c5noc(=O)[nH]5)C[C@@H]3C)[C@H]4C)c2=O)ccc1P(=O)(C1CC1)C1CC1 [Compound 132a, 3-((1S,2S)-1-(2-((S)-3-(3-(4-(dicyclopropylphosphoryl)-3-(methylamino)phenyl)-2-oxo-2,3-dihydro-1H-imidazol-1-yl)-2-(4-fluoro-3,5-dimethylphenyl)-4-methyl-4,5,6,7-tetrahydro-2H-pyrazolo[4,3-c]pyridine-5-carbonyl)-5-(tetrahydro-2H-pyran-4-yl)-1H-indol-1-yl)-2-methylcyclopropyl)-1,2,4-oxadiazol-5(4H)-one] | 0.1 to 0.2 | 0.1 to 1
6 | CCP(=O)(CC)c1ccc(-n2ccn(-c3c4c(nn3-c3cc(C)c(F)c(C)c3)CCN(C(=O)c3cc5cc(C6CCC(F)(F)CC6)ccc5n3[C@@]3(c5noc(=O)[nH]5)C[C@@H]3C)[C@H]4C)c2=O)cc1NC [Compound 133a, 3-((1S,2S)-1-(2-((S)-3-(3-(4-(diethylphosphoryl)-3-(methylamino)phenyl)-2-oxo-2,3-dihydro-1H-imidazol-1-yl)-2-(4-fluoro-3,5-dimethylphenyl)-4-methyl-4,5,6,7-tetrahydro-2H-pyrazolo[4,3-c]pyridine-5-carbonyl)-5-(4,4-difluorocyclohexyl)-1H-indol-1-yl)-2-methylcyclopropyl)-1,2,4-oxadiazol-5(4H)-one] | 0.1 to 0.2 | 0.1 to 1
7 | CCP(=O)(CC)c1ccc(-n2ccn(-c3c4c(nn3-c3cc(C)c(F)c(C)c3)CCN(C(=O)c3cc5cc(C6CCOCC6)ccc5n3C3(c5noc(=O)[nH]5)CC3)[C@H]4C)c2=O)cc1NC [Compound 135a, (S)-3-(1-(2-(3-(3-(4-(diethylphosphoryl)-3-(methylamino)phenyl)-2-oxo-2,3-dihydro-1H-imidazol-1-yl)-2-(4-fluoro-3,5-dimethylphenyl)-4-methyl-4,5,6,7-tetrahydro-2H-pyrazolo[4,3-c]pyridine-5-carbonyl)-5-(tetrahydro-2H-pyran-4-yl)-1H-indol-1-yl)cyclopropyl)-1,2,4-oxadiazol-5(4H)-one] | < 0.1 | ≤ 0.1
8 | CCP(=O)(CC)c1ccc(-n2ccn(-c3c4c(nn3-c3cc(C)c(F)c(C)c3)CCN(C(=O)c3cc5cc(C6CCOCC6)ccc5n3[C@@]3(c5noc(=O)[nH]5)C[C@@H]3C)[C@H]4C)c2=O)cc1OC(F)F [Compound 136a, 3-((1S,2S)-1-(2-((S)-3-(3-(4-(diethylphosphoryl)-3-(difluoromethoxy)phenyl)-2-oxo-2,3-dihydro-1H-imidazol-1-yl)-2-(4-fluoro-3,5-dimethylphenyl)-4-methyl-4,5,6,7-tetrahydro-2H-pyrazolo[4,3-c]pyridine-5-carbonyl)-5-(tetrahydro-2H-pyran-4-yl)-1H-indol-1-yl)-2-methylcyclopropyl)-1,2,4-oxadiazol-5(4H)-one] | 0.2 to 0.5 | 0.1 to 1
9 | CCP(=O)(CC)c1ccc(-n2ccn(-c3c4c(nn3-c3cc(C)c(F)c(C)c3)CCN(C(=O)c3cc5cc(C6CCOCC6)ccc5n3[C@@]3(c5noc(=O)[nH]5)C[C@@H]3C)[C@H]4C)c2=O)cc1N [Compound 138a, 3-((1S,2S)-1-(2-((S)-3-(3-(3-amino-4-(diethylphosphoryl)phenyl)-2-oxo-2,3-dihydro-1H-imidazol-1-yl)-2-(4-fluoro-3,5-dimethylphenyl)-4-methyl-4,5,6,7-tetrahydro-2H-pyrazolo[4,3-c]pyridine-5-carbonyl)-5-(tetrahydro-2H-pyran-4-yl)-1H-indol-1-yl)-2-methylcyclopropyl)-1,2,4-oxadiazol-5(4H)-one] | < 0.1 | ≤ 0.1
10 | CCP(=O)(CC)c1ncc(-n2ccn(-c3c4c(nn3-c3cc(C)c(F)c(C)c3)CCN(C(=O)c3cc5cc(C6CCOCC6)ccc5n3[C@@]3(c5noc(=O)[nH]5)C[C@@H]3C)[C@H]4C)c2=O)cc1NC [Compound 139a, 3-((1S,2S)-1-(2-((S)-3-(3-(6-(diethylphosphoryl)-5-(methylamino)pyridin-3-yl)-2-oxo-2,3-dihydro-1H-imidazol-1-yl)-2-(4-fluoro-3,5-dimethylphenyl)-4-methyl-4,5,6,7-tetrahydro-2H-pyrazolo[4,3-c]pyridine-5-carbonyl)-5-(tetrahydro-2H-pyran-4-yl)-1H-indol-1-yl)-2-methylcyclopropyl)-1,2,4-oxadiazol-5(4H)-one] | < 0.1 | ≤ 0.1
11 | CCP(=O)(CC)c1c(C)cc(-n2ccn(-c3c4c(nn3-c3cc(C)c(F)c(C)c3)CCN(C(=O)c3cc5cc(C6CCOCC6)ccc5n3[C@@]3(c5noc(=O)[nH]5)C[C@@H]3C)[C@H]4C)c2=O)cc1NC [Compound 140a, 3-((1S,2S)-1-(2-((S)-3-(3-(4-(diethylphosphoryl)-3-methyl-5-(methylamino)phenyl)-2-oxo-2,3-dihydro-1H-imidazol-1-yl)-2-(4-fluoro-3,5-dimethylphenyl)-4-methyl-4,5,6,7-tetrahydro-2H-pyrazolo[4,3-c]pyridine-5-carbonyl)-5-(tetrahydro-2H-pyran-4-yl)-1H-indol-1-yl)-2-methylcyclopropyl)-1,2,4-oxadiazol-5(4H)-one] | 0.5 to 5 | 0.1 to 1
12 | CNc1cc(-n2ccn(-c3c4c(nn3-c3cc(C)c(F)c(C)c3)CCN(C(=O)c3cc5cc(C6CCOCC6)ccc5n3[C@@]3(c5noc(=O)[nH]5)C[C@@H]3C)[C@H]4C)c2=O)ccc1P(=O)(C(C)C)C(C)C [Compound 141a, 3-((1S,2S)-1-(2-((S)-3-(3-(4-(diisopropylphosphoryl)-3-(methylamino)phenyl)-2-oxo-2,3-dihydro-1H-imidazol-1-yl)-2-(4-fluoro-3,5-dimethylphenyl)-4-methyl-4,5,6,7-tetrahydro-2H-pyrazolo[4,3-c]pyridine-5-carbonyl)-5-(tetrahydro-2H-pyran-4-yl)-1H-indol-1-yl)-2-methylcyclopropyl)-1,2,4-oxadiazol-5(4H)-one] | < 0.1 | ≤ 0.1
